The results in this text go back to paper PMC4451461, “SimC7 Is a Novel NAD(P)H-Dependent Ketoreductase Essential for the Antibiotic Activity of the DNA Gyrase Inhibitor Simocyclinone” (Journal of Molecular Biology, 2015).

What all share (assay type): biochemical
The target of experiment [1] is T1, SimC7 (Streptomyces antibioticus, UniProt G9VYV4).
T1 construct: N-terminally His-tagged SimC7
T1 sequence (G9VYV4 1-284): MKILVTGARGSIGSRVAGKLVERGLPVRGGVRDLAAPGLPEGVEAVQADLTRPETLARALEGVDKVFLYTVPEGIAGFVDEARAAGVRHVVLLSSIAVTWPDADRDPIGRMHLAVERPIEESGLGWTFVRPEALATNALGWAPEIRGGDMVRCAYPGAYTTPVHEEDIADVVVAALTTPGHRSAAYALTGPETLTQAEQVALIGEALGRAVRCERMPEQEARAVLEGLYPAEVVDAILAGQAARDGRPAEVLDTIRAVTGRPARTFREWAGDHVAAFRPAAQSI
The experiment is described as follows: HPLC-UV ketoreductase assay ([…] NAD(P)H).

For experiment [2], the target named is T2, DNA gyrase subunit A (GyrA) (Escherichia coli, UniProt P0AES4). Briefly: DNA gyrase inhibition (supercoiling) assay. The arrangement: DNA gyrase; with GyrB.
Target sequence in this assay (P0AES4 2-875): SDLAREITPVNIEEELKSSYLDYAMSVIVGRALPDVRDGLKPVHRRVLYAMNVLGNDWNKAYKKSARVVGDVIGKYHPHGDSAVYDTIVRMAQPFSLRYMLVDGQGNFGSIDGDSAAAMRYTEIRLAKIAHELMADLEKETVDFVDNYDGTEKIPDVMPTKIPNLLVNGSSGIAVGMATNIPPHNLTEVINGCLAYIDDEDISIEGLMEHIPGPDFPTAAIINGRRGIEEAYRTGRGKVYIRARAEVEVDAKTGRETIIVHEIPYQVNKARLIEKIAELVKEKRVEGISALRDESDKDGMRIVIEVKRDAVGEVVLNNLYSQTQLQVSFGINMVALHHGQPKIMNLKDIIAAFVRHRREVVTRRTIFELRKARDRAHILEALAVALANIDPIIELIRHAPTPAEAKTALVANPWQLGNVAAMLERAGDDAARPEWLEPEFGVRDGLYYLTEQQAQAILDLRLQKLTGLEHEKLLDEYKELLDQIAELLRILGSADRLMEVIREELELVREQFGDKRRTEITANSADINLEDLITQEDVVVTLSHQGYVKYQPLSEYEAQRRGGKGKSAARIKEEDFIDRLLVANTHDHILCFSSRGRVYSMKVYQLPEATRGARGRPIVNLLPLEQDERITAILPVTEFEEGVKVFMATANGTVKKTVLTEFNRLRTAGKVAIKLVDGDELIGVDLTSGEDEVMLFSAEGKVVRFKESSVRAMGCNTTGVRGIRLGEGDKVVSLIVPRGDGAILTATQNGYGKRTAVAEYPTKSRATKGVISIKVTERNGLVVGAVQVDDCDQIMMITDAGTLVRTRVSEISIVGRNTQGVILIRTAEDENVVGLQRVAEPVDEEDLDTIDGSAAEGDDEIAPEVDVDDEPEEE
Experiment [3] concerns the target T1, SimC7. The experiment is described as follows: HPLC-UV ketoreductase assay; also oxidised as substrate in the reverse reaction.
Experiment [4] has as its target T2, DNA gyrase subunit A (GyrA). Briefly: DNA gyrase supercoiling inhibition; SPR showed only weak, non-specific binding to GyrA. The arrangement: DNA gyrase; with GyrB.
Target sequence in this assay (P0AES4 2-875): as above
Experiment [5] shares this target. The experiment is described as follows: SPR to GyrA N-terminal domain (data not shown); DNA gyrase supercoiling inhibition. The arrangement: GyrA N-terminal domain (SPR); DNA gyrase (supercoiling); with GyrB (supercoiling assay). The source says: SPR to GyrA N-terminal domain (data not shown); DNA gyrase supercoiling inhibition on DNA gyrase subunit A (GyrA) | SD8 bound to the GyrA N-terminal domain with a similar affinity to that reported previously
Target sequence in this assay (P0AES4 2-523): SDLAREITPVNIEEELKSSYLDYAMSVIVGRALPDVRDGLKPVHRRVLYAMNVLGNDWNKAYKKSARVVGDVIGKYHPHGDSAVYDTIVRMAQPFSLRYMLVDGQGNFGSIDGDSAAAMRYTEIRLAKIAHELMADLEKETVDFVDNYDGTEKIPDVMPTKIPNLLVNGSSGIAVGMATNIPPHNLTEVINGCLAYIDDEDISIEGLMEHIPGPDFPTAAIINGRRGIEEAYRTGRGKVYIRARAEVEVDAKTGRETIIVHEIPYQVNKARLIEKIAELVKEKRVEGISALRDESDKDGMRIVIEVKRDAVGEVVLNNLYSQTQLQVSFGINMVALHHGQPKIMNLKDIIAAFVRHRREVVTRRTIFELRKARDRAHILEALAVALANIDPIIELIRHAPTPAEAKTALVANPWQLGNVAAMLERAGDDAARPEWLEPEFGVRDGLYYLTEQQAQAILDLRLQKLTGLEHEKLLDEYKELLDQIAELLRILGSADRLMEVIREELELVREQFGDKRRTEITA

For `NC(=O)C1=CN([C@@H]2O[C@H](COP(=O)(O)OP(=O)(O)OC[C@H]3O[C@@H](n4cnc5c(N)ncnc54)[C@H](OP(=O)(O)O)[C@@H]3O)[C@@H](O)[C@H]2O)C=CC1` [NADPH], the “HPLC-UV ketoreductase assay (0.3 mM NAD(P)H)” value in experiment [1] is “SimC7 was able to use NADH or NADPH for the reduction (Fig. 6b) but showed a preference for NADPH”. As for `NC(=O)C1=CN([C@@H]2O[C@H](COP(=O)(O)OP(=O)(O)OC[C@H]3O[C@@H](n4cnc5c(N)ncnc54)[C@H](O)[C@@H]3O)[C@@H](O)[C@H]2O)C=CC1` [NADH], the “HPLC-UV ketoreductase assay (0.3 mM NAD(P)H)” value in experiment [1] is recorded as “SimC7 was able to use NADH or NADPH for the reduction (Fig. 6b)”. As a reminder, the IC50 is the concentration needed to halve the response being measured. Low values mean higher potency, high ones lower potency. Regarding `COC(=O)/C=C/C=C/C=C/C=C/C(=O)Nc1c(O)c2ccc(O)c(Cl)c2oc1=O` [MGD8N2A], in experiment [2], 25 µM corresponded to half-maximal inhibition (IC50). As to `CC(=O)O[C@@H]1[C@@H](C)O[C@@H](c2ccc3c(c2O)[C@H](O)[C@]24O[C@@]2(C3=O)[C@@]2(O)C(=O)C=C(C)C[C@@]2(O)C[C@@H]4O)C[C@H]1OC(=O)/C=C/C=C/C=C/C=C/C(=O)Nc1c(O)c2ccc(O)c(Cl)c2oc1=O` [compound 2, simocyclinone D8], in experiment [3], the “HPLC-UV ketoreductase assay; also oxidised as substrate in the reverse reaction” value was “It was also possible to assay the reaction in the reverse direction, following the oxidation of SD8 to 7-oxo-SD8 by SimC7”. In experiment [4], `CC(=O)O[C@@H]1[C@@H](C)O[C@@H](c2ccc3c(c2O)C(=O)[C@]24O[C@@]2(C3=O)[C@@]2(O)C(=O)C=C(C)C[C@@]2(O)C[C@@H]4O)C[C@H]1OC(=O)/C=C/C=C/C=C/C=C/C(=O)Nc1c(O)c2ccc(O)c(Cl)c2oc1=O` [7-oxo-SD8] showed an IC50 of 50 to 100 µM. As for `CC(=O)O[C@@H]1[C@@H](C)O[C@@H](c2ccc3c(c2O)[C@H](O)[C@]24O[C@@]2(C3=O)[C@@]2(O)C(=O)C=C(C)C[C@@]2(O)C[C@@H]4O)C[C@H]1OC(=O)/C=C/C=C/C=C/C=C/C(=O)Nc1c(O)c2ccc(O)c(Cl)c2oc1=O` [SD8, simocyclinone D8], in experiment [5], the IC50 lay in the range of 0.1 to 0.5 µM.
